Assay results from patent publication EP0881220A1, “DIARYLSULTAM DERIVATIVES” (priority 1996, dated 1997).

Assays:
Dopamine D2 = target: T1, Dopamine D2 (Rattus norvegicus, UniProt P61169); test: Binding to dopaminergic receptors using rat striata (method of Terai et al.)
T1 construct: dopaminergic receptors was also measured using rat striata; from tissue; host or cells: rat striata
Experimental: The binding of these compounds to dopaminergic receptors was also measured using rat striata according to the method described by Terai et al. (M. Terai, et al., Eur. J. Pharmacol. 1989, 173, 177).

sigma 2 binding site = target: T2, sigma 2 binding site (Rattus norvegicus, UniProt Q5U3Y7); test: Sigma 2 selective receptor binding inhibition assay with [^3H]-di-o-tolylguanidine
T2 sequence (Q5U3Y7 1-176): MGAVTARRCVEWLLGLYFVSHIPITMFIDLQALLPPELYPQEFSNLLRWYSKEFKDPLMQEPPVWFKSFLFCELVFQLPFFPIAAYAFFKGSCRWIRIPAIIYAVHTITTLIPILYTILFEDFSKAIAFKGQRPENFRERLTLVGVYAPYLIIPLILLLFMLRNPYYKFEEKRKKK

sigma 1 binding site = sigma 1 binding site (Cavia porcellus, UniProt Q60492)
Sequence of sigma 1 binding site (Q60492 whole entry): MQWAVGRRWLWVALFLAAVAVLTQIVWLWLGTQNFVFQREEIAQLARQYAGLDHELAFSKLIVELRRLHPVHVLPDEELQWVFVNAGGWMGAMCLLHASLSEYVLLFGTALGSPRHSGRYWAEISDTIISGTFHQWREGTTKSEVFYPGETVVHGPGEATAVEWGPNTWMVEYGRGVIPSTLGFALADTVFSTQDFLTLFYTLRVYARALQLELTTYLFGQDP

T1 sequence (P61169 whole entry): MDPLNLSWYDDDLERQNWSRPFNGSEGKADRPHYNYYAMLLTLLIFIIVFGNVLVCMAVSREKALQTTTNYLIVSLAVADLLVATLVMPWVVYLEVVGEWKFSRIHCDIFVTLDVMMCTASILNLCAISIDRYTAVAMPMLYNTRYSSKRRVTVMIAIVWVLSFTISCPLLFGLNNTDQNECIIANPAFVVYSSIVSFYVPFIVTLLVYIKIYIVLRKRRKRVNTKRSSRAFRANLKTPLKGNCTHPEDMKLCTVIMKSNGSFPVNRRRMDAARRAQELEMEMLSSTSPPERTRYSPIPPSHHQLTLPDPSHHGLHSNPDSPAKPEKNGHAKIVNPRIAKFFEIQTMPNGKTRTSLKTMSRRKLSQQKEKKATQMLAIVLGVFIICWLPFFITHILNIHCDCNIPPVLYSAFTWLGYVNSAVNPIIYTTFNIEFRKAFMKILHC

For `O=C(O)/C=C/C(=O)O.O=S1(=O)c2ccccc2Oc2ccccc2N1CC1CCN(C[C@H](O)C23CC4CC(CC(C4)C2)C3)CC1.O=S1(=O)c2ccccc2Oc2ccccc2N1CC1CCN(C[C@H](O)C23CC4CC(CC(C4)C2)C3)CC1` [Example 10, (R,S)-1-(1-Adamantyl)-2-[4-(6H-dibenzo[b,f][1,4,5]oxathiazepin-6-yl-methyl)piperidin-1-yl]ethanol S,S-dioxide hemi-fumarate], the Ki (Dopamine D2) was greater than 1000 nM, the “S2/S1 Ratio” value (sigma 2 binding site; ratio of Sigma 2 Ki to Sigma 1 Ki) was 0.004 and the Ki (sigma 2 binding site; read-out: Sigma 2 Ki(nM ± SEM), [^3H]-DTG 1 nM, rat liver crude P2 membrane fraction, 500 nM pentazocine, 2 hours at 25°C) was 0.76 nM. It also gave a Ki (sigma 1 binding site) of 200 nM.
